Our source for the IC50 values is patent US20120149662A1, “Heterocyclic Compounds as Janus Kinase Inhibitors” (BioCryst Pharmaceuticals, Inc., priority 2009, published 2012).

Structures are written as SMILES.

The target in the experiment is JAK3 (JH1domain-catalytic) kinase and other members of the JAK family. Kind of experiment: Test A: IC50 determination against JAK family kinases (Fabian et al. 2005 / Karaman et al. 2008 assay). In kind it is binding. The conditions noted are these: 11 point dose response curves in triplicate; JAK family member not given; read-out: Activity (IC50) for JAK Family of Enzymes. As for the experimental part: The ability of a compound of the invention to bind to JAK3 may be determined using pharmacological models which are well known to the art, or using Test A described below.
Inhibition constants (IC50s) were determined against JAK3 (JH1domain-catalytic) kinase and other members of the JAK family. Assays were performed as described in Fabian et al. (2005) Nature Biotechnology, vol. 23, p. 329 and in Karaman et al. (2008) Nature Biotechnology, vol. 26, p. 127 Inhibition constants were determined using 11 point dose response curves which were performed in triplicate. Table 1 shown below lists compounds of the invention and their respective IC50 values.
In the case of `N#CCC(C1CCCC1)n1cc(-c2cnnc3[nH]ccc23)cn1` (stereo not drawn) [Compound 34j, 3-(4-(7H-pyrrolo[2,3-c]pyridazin-4-yl)-1H-pyrazol-1-yl)-3-cyclopentylpropanenitrile], the IC50 (in general, the concentration needed to halve the response being measured) is less than 5 µM.

Take `N#CC[C@]1(n2cc(-c3cnnc4[nH]ccc34)cn2)C[C@H](C#N)C1` [Compound 60g, (E)-3-(4-(7H-pyrrolo[2,3-c]pyridazin-4-yl)-1H-pyrazol-1-yl)-3-(cyanomethyl)cyclobutanecarbonitrile]: the half-maximal inhibitory concentration (IC50) is less than 5 µM.

Turning to `N#CCC(C1CC1)n1cc(-c2cnnc3[nH]ccc23)cn1` (stereo not drawn) [Compound 53d, 3-(4-(7H-pyrrolo[2,3-c]pyridazin-4-yl)-1H-pyrazol-1-yl)-3-cyclopropylpropane nitrile], the IC50 is less than 5 µM.

On to `N#CCC1(n2cc(-c3cnnc4[nH]ccc34)cn2)CCC1` [Compound 55d, 2-(1-(4-(7H-pyrrolo[2,3-c]pyridazin-4-yl)-1H-pyrazol-1-yl)cyclobutyl)acetonitrile], for which the IC50 is less than 5 µM.

In the case of `N#CC[C@]1(n2cc(-c3cnnc4[nH]ccc34)cn2)C[C@@H](C#N)C1` [Compound 60f, (Z)-3-(4-(7H-pyrrolo[2,3-c]pyridazin-4-yl)-1H-pyrazol-1-yl)-3-(cyanomethyl)cyclobutanecarbonitrile], the IC50 is less than 5 µM.

Consider `CCS(=O)(=O)N1CC(CC#N)(n2cc(-c3cnnc4[nH]ccc34)cn2)C1` [Compound 49c, 2-(3-(4-(7H-pyrrolo[2,3-c]pyridazin-4-yl)-1H-pyrazol-1-yl)-1-(ethylsulfonyl)azetidin-3-yl)acetonitrile], for which the IC50 was less than 5 µM.

Consider `N#CC[C@H](CC1CCCC1)n1cc(-c2cnnc3[nH]ccc23)cn1` [Compound 59d, (S)-3-(4-(7H-pyrrolo[2,3-c]pyridazin-4-yl)-1H-pyrazol-1-yl)-4-cyclopentylbutanenitrile], for which the 50% inhibitory concentration (IC50) is less than 5 µM.

On to `N#CC[C@H](C1CCCCC1)n1cc(-c2cnnc3[nH]ccc23)cn1` [Compound 58d, (R)-3-(4-(7H-pyrrolo[2,3-c]pyridazin-4-yl)-1H-pyrazol-1-yl)-3-cyclohexylpropanenitrile], for which the IC50 was less than 5 µM.

Consider `N#CC[C@H](c1ccccc1)n1cc(-c2cnnc3[nH]ccc23)cn1` [Compound 67d, (R)-3-(4-(7H-pyrrolo[2,3-c]pyridazin-4-yl)-1H-pyrazol-1-yl)-3-phenylpropane nitrile], for which the IC50 is less than 5 µM.

Consider `N#CCC(CC1CCCC1)n1cc(-c2cnnc3[nH]ccc23)cn1` (stereo not drawn) [Compound 51e, 3-(4-(7H-pyrrolo[2,3-c]pyridazin-4-yl)-1H-pyrazol-1-yl)-4-cyclopentylbutane nitrile], for which the IC50 is less than 5 µM.

`N#CC[C@H](c1cccc(O)c1)n1cc(-c2cnnc3[nH]ccc23)cn1` [Compound 68f, (R)-3-(4-(7H-pyrrolo[2,3-c]pyridazin-4-yl)-1H-pyrazol-1-yl)-3-(3-hydroxyphenyl)propanenitrile]: the IC50 was less than 5 µM.

Consider `NC(=O)c1c[nH]c2nnnc(O)c12` [Compound 70c, 4-hydroxy-7H-pyrrolo[2,3-d][1,2,3]triazine-5-carboxamide], for which the IC50 was greater than 10 µM.

As to `N#CC[C@H](C1CCCC1)n1cc(-c2cnnc3[nH]ccc23)cn1` [Compound 43g, (R)-3-(4-(7H-pyrrolo[2,3-c]pyridazin-4-yl)-1H-pyrazol-1-yl)-3-cyclopentylpropanenitrile], the IC50 is less than 5 µM.

Consider `N#CCC1(n2cc(-c3cnnc4[nH]ccc34)cn2)COC1` [Compound 46c, 2-(3-(4-(7H-pyrrolo[2,3-c]pyridazin-4-yl)-1H-pyrazol-1-yl)oxetan-3-yl)acetonitrile], for which the IC50 is less than 10 µM.

Consider `c1ccc(-c2cnnc3[nH]ccc23)cc1` [Compound 50a, 4-phenyl-7H-pyrrolo[2,3-c]pyridazine], for which the IC50 is greater than 10 µM.

For the compound `CCOC(C)n1cc(-c2cnnc3[nH]ccc23)cn1` (stereo not drawn) [Compound 32c, 4-(1-(1-ethoxyethyl)-1H-pyrazol-4-yl)-7H-pyrrolo[2,3-c]pyridazine], the IC50 is greater than 10 µM.

In the case of `c1cc2c(-c3cn[nH]c3)cnnc2[nH]1` [Compound 31m, 4-(1H-pyrazol-4-yl)-7H-pyrrolo[2,3-c]pyridazine], the IC50 is greater than 10 µM.

`N#CCC[C@H](C1CCCC1)n1cc(-c2cnnc3[nH]ccc23)cn1` [Compound 62b, (R)-4-(4-(7H-pyrrolo[2,3-c]pyridazin-4-yl)-1H-pyrazol-1-yl)-4-cyclopentyl butanenitrile]: the IC50 is less than 5 µM.

For the compound `N#CCC1(n2cc(-c3cnnc4[nH]ccc34)cn2)CCCCC1` [Compound 56d, 2-(1-(4-(7H-pyrrolo[2,3-c]pyridazin-4-yl)-1H-pyrazol-1-yl)cyclohexyl)acetonitrile], the IC50 is less than 5 µM.

For the compound `N#CC[C@@H](C1CCCC1)n1cc(-c2cnnc3[nH]ccc23)cn1` [Compound 44d, (S)-3-(4-(7H-pyrrolo[2,3-c]pyridazin-4-yl)-1H-pyrazol-1-yl)-3-cyclopentyl propanenitrile], the IC50 was less than 5 µM.

Take `CC(C)(C)C(=O)OCn1ccc2c(-c3cn[nH]c3)cnnc21` [Compound 43a, (4-(1H-pyrazol-4-yl)-7H-pyrrolo[2,3-c]pyridazin-7-yl)methyl pivalate]: the IC50 is greater than 10 µM.

Regarding `N#CCC(C1CCC1)n1cc(-c2cnnc3[nH]ccc23)cn1` (stereo not drawn) [Compound 54e, 3-(4-(7H-pyrrolo[2,3-c]pyridazin-4-yl)-1H-pyrazol-1-yl)-3-cyclobutylpropane nitrile], the half-maximal inhibitory concentration (IC50) was less than 5 µM.

Turning to `N#CCC(CC1CCCCC1)n1cc(-c2cnnc3[nH]ccc23)cn1` (stereo not drawn) [Compound 52e, 3-(4-(7H-pyrrolo[2,3-c]pyridazin-4-yl)-1H-pyrazol-1-yl)-4-cyclohexylbutane nitrile], the IC50 is less than 5 µM.

For the compound `N#CCC1(n2cc(-c3cnnc4[nH]ccc34)cn2)CCCC1` [Compound 48d, 2-(1-(4-(7H-pyrrolo[2,3-c]pyridazin-4-yl)-1H-pyrazol-1-yl)cyclopentyl)acetonitrile], the half-inhibitory concentration (IC50) was less than 5 µM.

`N#CCC(CC1CC1)n1cc(-c2cnnc3[nH]ccc23)cn1` (stereo not drawn) [Compound 57e, 3-(4-(7H-pyrrolo[2,3-c]pyridazin-4-yl)-1H-pyrazol-1-yl)-4-cyclopropylbutane nitrile]: the concentration for half-maximal inhibition (IC50) was less than 5 µM.

For `CC(C)(C)OC(=O)N1CC(CC#N)(n2cc(-c3cnnc4[nH]ccc34)cn2)C1` [Compound 45d, tert-butyl 3-(4-(7H-pyrrolo[2,3-c]pyridazin-4-yl)-1H-pyrazol-1-yl)-3-(cyanomethyl)azetidine-1-carboxylate], the IC50 was greater than 10 µM.

As for `N#CCC(C1CCCCC1)n1cc(-c2cnnc3[nH]ccc23)cn1` (stereo not drawn) [Compound 47d, 3-(4-(7H-pyrrolo[2,3-c]pyridazin-4-yl)-1H-pyrazol-1-yl)-3-cyclohexylpropane nitrile], the IC50 is less than 5 µM.
